≈ marks a conversion by molar mass, not a printed value. Where two headings read alike, the source gives them in different places.
Tests used:
[1] = tested on: human HepG2 hepatic cancer cells; assay: MTT cell viability assay; assay type: cell-based; settings: Homo sapiens; for viability at 200 µg: HepG2, 48 h
Experimental: The human liver cells were cultivated in Dulbecco's modified Eagle medium (DMEM) in which 100 U mL^−1 penicillin, 10% fetal bovine and […] streptomycin were added and kept at 37 °C in a […] carbon dioxide induced humidified environment. The human liver cells prepared as per above procedure were then treated with synthesized compounds diluted to 0.05% DMSO concentration.
Using MTT assay, the % viability of cancer cells 36 was evaluated. According to the standard procedure, HepG2 cells were treated with various dosages of synthesized compounds for 48 hours each. The cells were then incubated for 4 hours at 37 °C with 10μ MTT reagent (5 mg mL^−1). Next, in 150 μL DMSO was added to dissolve formazan crystals. The λmax was recorded at 409 nm in a microplate reader (thermos scientific).

[2] = target: Jack bean urease (Canavalia ensiformis, UniProt P07374); assay: biochemical; assay type: biochemical; settings: for inhibition at 500 µM: pH 6.8, read-out: % Inhibition of urease
Experimental: The inhibition potential of the isolated compounds against urease was investigated using a SpectraMax M2 reader using 96-well microplates.
The kinetic assay involved preparing varying concentrations of both the test compound and the substrate (urea), spanning 0 μM, 5 μM, 10 μM, 15 μM, and 20 μM. The resulting data was utilized to construct a Lineweaver–Burk plot.
In 96-well plates were incubated at 37 °C for 15 min, reaction mixtures consisting of 25 μL of test compounds (each 0.5 mM), 25 μL of enzyme solution (Jack bean urease) and 55 μL of buffers containing 20.79 mM urea. The indophenol method described by Weatherburn[21] was used to determine urease inhibitor activity by measuring ammonia production. Briefly, to each well were added 70 μL of alkaline reagent (0.5% w/v NaOH and 0.1% active chloride, NaOCl) and 45 μL of phenolic reagent (1% w/v phenol and 0.005% w/v sodium nitroprusside). The microplate reader (Molecular Devices, USA) was used to measure the increase in absorbance at 650 nm after 50 min. A final volume of 245 μL was required to perform all reactions in a triplicate. The results (absorbance change per minute) were processed using SoftMax Pro software (Molecular Devices, USA). All assays were performed at pH 6.8. Inhibition percentages were calculated from the formula% Inhibition = 100 − (Abs(sample)/Abs(control)) × 100where “A” is the absorbance of the “test well” as well as the “control”. Thiourea was used as a standard.

[3] = tested on: Aspergillus niger; assay: Antifungal bioassay, poisoned medium technique; assay type: cell-based; settings: 168 h, read-out: MIC values against Aspergillus niger
Experimental: (§1) Anti-microbial assays of the isolated componds were performed against the selected strain of fungi i.e., Alternaria alternata, Aspergillus fumigatus, Aspergillus niger, and Penicillium citrii.
(§2) Alternaria alternata, Aspergillus fumigatus, Aspergillus niger, and Penicillium citrii strains were obtained from the Biotechnology lab at COMSATS University Islamabad. The antifungal activity of isolated compounds was assessed using poisoned medium technique. Two percent malt extract agar medium was generated by autoclaving at 121 °C for 30 minutes. Weighed volumes of the compounds were dissolved in […] of sterilized distilled water and put to flasks containing 59.5 mL of malt extract agar medium while they were still molten to obtain final concentrations of 100, 300, 500, 700, 900, and 1000 ppm. The control received the same amount of distilled water. Each sterile Petri plate with a diameter of 90 mm was filled with 20 mL of each medium and allowed to solidify. 5 mm diameter mycelial discs were produced from the tips of 5–7 day-old cultures of the four test fungus species and put in the center of each Petri dish using a sterile cork borer. Every treatment was duplicated three times. Plates were cultured in an incubator at 25 ± 2 °C for seven days. To calculate the rate of fungal growth, the three diameters of each colony were measured at right angles and averaged. Table 2 MIC values (μM) of the isolated compounds against Alternaria alternata, Aspergillus fumigatus, Aspergillus niger, and Penicillium citrii strains.[19]

[4] = tested on: Aspergillus fumigatus; assay: Antifungal bioassay, poisoned medium technique; assay type: cell-based; settings: 168 h, read-out: MIC values against Aspergillus fumigatus
Experimental: as §1, §2

[5] = tested on: Alternaria alternata; assay: Antifungal bioassay, poisoned medium technique; assay type: cell-based; settings: 168 h, read-out: MIC values against Alternaria alternata
Experimental: as §1, §2

[6] = tested on: Penicillium citrii; assay: Antifungal bioassay, poisoned medium technique; assay type: cell-based; settings: 168 h, read-out: MIC values against Penicillium citrii
Experimental: as §1, §2

[7] = tested on: S. aureus; assay: Antibacterial activity, agar well diffusion method; assay type: cell-based, Staphylococcus aureus; settings: Staphylococcus aureus; abstract; read-out: MIC against S. aur
Experimental: The agar well diffusion method evaluated every compound separately. Each sterile Petri plate was aseptically filled with 20 mL of the agar medium, which was then autoclaved at 120 °C to destroy any germs. The media then solidified at room temperature. Various bacterial strains were put to agar plates using a sterile cotton swab. A 6 mm-diameter well was drilled using a sterilized cork borer. […] In a well with a diameter of 6 mm, 20 mL of the standard drug and isolated compounds were added. At 37 °C, the test plates were incubated for 24 hours. The test plates were incubated at 37 °C for 24 hours. The standard disc containing 50 mg of ciprofloxacin served as a positive control for antibacterial activity, and DMSO served as a negative control.

[8] = tested on: H.pylori; assay: Antibacterial activity, agar well diffusion method; assay type: cell-based, Helicobacter pylori; settings: Helicobacter pylori; abstract; read-out: MIC against H. pylori
Description: Antibacterial activity of the isolated and synthesized compounds was perform using agar well method. Three bacterial strains selected for this experiment were H.pylori, B. subtilis and S. aureus, for all of three strains compounds show good to mederate inhibition. […] The presence of H. pylori in the stomach has been associated with a range of gastric disorders, including peptic ulcers, gastritis, and an increased risk of gastric cancer. The bacterium's ability to manipulate the gastric environment through urease activity underscores its role in the development and progression of these conditions. Different studies have targeted H. pylori and its urease activity as potential avenues for therapeutic intervention and disease management (Fig. 4).
The agar well diffusion method evaluated every compound separately. Each sterile Petri plate was aseptically filled with 20 mL of the agar medium, which was then […]. The media then solidified at room temperature. Various bacterial strains were put to agar plates using a sterile cotton swab. A 6 mm-diameter well was drilled using a sterilized cork borer. Each isolated compound was dissolved in 1 mL of a 20% DMSO solution. In a well with a diameter of 6 mm, […] of the standard drug and isolated compounds were added. […] The zone of inhibition was graphed and quantified in millimeters.[20]

[9] = HepG2, MTT, 48 hours, at 200 μg
[10] = poisoned medium, 25 ± 2 °C, seven days

Chain of Jack bean urease (P07374 whole entry, looked up): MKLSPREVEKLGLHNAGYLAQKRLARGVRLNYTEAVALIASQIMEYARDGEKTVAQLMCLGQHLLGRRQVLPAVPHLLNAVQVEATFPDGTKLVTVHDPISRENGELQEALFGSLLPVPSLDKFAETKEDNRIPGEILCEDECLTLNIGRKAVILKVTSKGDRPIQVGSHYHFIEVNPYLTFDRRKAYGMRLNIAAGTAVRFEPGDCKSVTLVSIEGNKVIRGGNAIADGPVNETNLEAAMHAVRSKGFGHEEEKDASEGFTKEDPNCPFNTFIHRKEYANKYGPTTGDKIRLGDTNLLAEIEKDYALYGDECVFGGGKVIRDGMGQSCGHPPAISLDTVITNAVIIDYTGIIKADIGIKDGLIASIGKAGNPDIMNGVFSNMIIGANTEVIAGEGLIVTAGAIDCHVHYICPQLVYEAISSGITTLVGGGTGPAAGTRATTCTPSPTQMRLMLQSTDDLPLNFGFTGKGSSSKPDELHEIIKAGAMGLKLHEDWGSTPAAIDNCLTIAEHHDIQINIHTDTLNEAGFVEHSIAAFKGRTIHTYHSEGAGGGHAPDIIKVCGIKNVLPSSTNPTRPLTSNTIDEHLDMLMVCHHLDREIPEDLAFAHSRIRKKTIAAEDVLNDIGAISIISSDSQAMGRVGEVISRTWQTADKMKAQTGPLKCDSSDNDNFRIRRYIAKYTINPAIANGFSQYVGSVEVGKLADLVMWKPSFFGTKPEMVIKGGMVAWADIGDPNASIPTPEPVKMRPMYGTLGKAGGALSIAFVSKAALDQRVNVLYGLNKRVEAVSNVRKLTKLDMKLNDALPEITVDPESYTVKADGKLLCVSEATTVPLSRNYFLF

`Cc1cc(O)c2c(c1)C(=O)c1cc(O)cc(O)c1C2=O` [Compound 11, Emodin] showed a viability at 200 µg [1, 9] of 83.89 ± 0.73%, an IC50 [2] of 5.2 ± 0.14 µM and an inhibition at 500 µM [2] of 72.9%.

With `O=c1cc(-c2ccc(O)cc2)oc2c([C@@H]3O[C@H](CO)[C@@H](O)[C@H](O)[C@H]3O)c(O)cc(O)c12` [Apigenin-8-C-β-D-glucopyranoside] the MIC [3] was 0.015 ± 0.001 µM (≈ 6.49 ng/mL), the MIC [4] was 0.01 ± 0.006 µM (≈ 4.32 ng/mL) and the MIC [5] was 0.025 ± 0.007 µM (≈ 10.8 ng/mL). For the same compound, the MIC [6] was 0.01 ± 0.006 µM (≈ 4.32 ng/mL).

Compound `O=c1cc(-c2ccc(O)c(O)c2)oc2cc(O)ccc12` [Compound 3, 3′,4′,7-Trihydroxyflavone] has an MIC [3, 10] of 0.032 ± 0.005 µM (≈ 8.65 ng/mL), an MIC [4, 10] of 0.013 ± 0.003 µM (≈ 3.51 ng/mL) and an MIC [5, 10] of 0.056 ± 0.001 µM (≈ 15.1 ng/mL). For the same compound, the MIC [6, 10] was 0.016 ± 0.01 µM (≈ 4.32 ng/mL).

For `COc1cc(O)cc2oc(-c3ccc(O)c(O)c3)cc(=O)c12` [Luteolin-5-methyl ether], the MIC [3, 10] was 0.01 ± 0.006 µM (≈ 3 ng/mL), the MIC [4, 10] was 0.04 ± 0.002 µM (≈ 12 ng/mL) and the MIC [5, 10] was 0.03 ± 0.006 µM (≈ 9.01 ng/mL). It also gave an MIC [6, 10] of 0.06 ± 0.004 µM (≈ 18 ng/mL).

`CCCCCCCCCCCCCCCCCCC(=O)O` [Compound 14, Nonadecanoic acid] was tested, and the IC50 [2] was 1.95 ± 0.31 µM and the inhibition at 500 µM [2] was 80.4%.

`COc1cc(O)c2c(c1)C(=O)c1cc(C)cc(O)c1C2=O` [Compound 13, Physcion] showed a viability at 200 µg [1] of 87.4 ± 2.55%, an IC50 [2] of 6.24 ± 0.3 µM and an inhibition at 500 µM [2] of 63.5%.

With `C=C(CCC(=CC)C(C)C)C1CCC2C3=CCC4C(C)C(O)CCC4(C)C3CCC12C` (stereo not drawn) [Compound 1, 21-methylene-24-ethylidene lophenol] the MIC [7] was 0.12 µg/mL (≈ 0.283 µM), the MIC [8] was 0.28 µg/mL (≈ 0.659 µM) and the IC50 [2] was 1.02 ± 0.35 µM. For the same compound, the inhibition at 500 µM [2] was 82.3% and the “mode of inhibition, Lineweaver–Burk plot” value ([2]; urea and compound 0–20 μM) was “competitive”.

`CC[C@H](CC[C@@H](C)[C@H]1CC[C@H]2[C@@H]3C[C@H](O)C4=C[C@@H](O)CC[C@]4(C)[C@H]3CC[C@]12C)C(C)C` [Stigmast-4-en-3β,6α-diol] was tested, and the MIC [3, 10] was 0.015 ± 0.005 µM (≈ 6.46 ng/mL), the MIC [4, 10] was 0.01 ± 0.006 µM (≈ 4.31 ng/mL) and the MIC [5, 10] was 0.045 ± 0.003 µM (≈ 19.4 ng/mL). For the same compound, the MIC [6, 10] was 0.2 ± 0.03 µM (≈ 86.1 ng/mL).

For `CC[C@H](CC[C@@H](C)[C@H]1CC[C@H]2[C@@H]3CC(=O)C4=CC(=O)CC[C@]4(C)[C@H]3CC[C@]12C)C(C)C` [Compound 9, Stigmast-4-en-3,6-dione], the IC50 ([1]; HepG2, calculated using Graph Pad Prism software, read-out: IC50 against HepG2) was 7.8 µM and the inhibition at 500 µM [2] was 13.4%.

Compound `CCC(CCC(C)C1CCC2C3CC(O)C4=CC(=O)CCC4(C)C3CCC12C)C(C)C` (stereo not drawn) [Synthesized compound] has an inhibition at 500 µM [2] of 69% and an IC50 ([2]; read-out: IC50 ± SEM, urease, pH 6.8) of 8.03 ± 0.19 µM.

In the case of `CC[C@H](CC[C@@H](C)[C@H]1CC[C@H]2[C@@H]3CC=C4C[C@@H](O)CC[C@]4(C)[C@H]3CC[C@]12C)C(C)C` [Compound 15, β-Sitosterol], the viability at 200 µg [1] is reported as 94.4 ± 4.42%, the IC50 [2] is reported as 2.78 ± 0.24 µM and the inhibition at 500 µM [2] is reported as 80%.

`Cc1cc(O)c2c(c1)C(=O)c1cccc(O)c1C2=O` [Compound 12, Chrysophanol] showed a viability at 200 µg [1, 9] of 59.3 ± 2.2%, an IC50 [2] of 5.92 ± 0.25 µM and an inhibition at 500 µM [2] of 78.2%.

Source: paper PMC10945739, “Exploring Cassia mimosoïdes as a promising natural source of steroids with potent anti-cancer, urease inhibition, and antimicrobial properties” (RSC Advances, 2024)
